US20240218023A1, “CYCLIC PEPTIDE-N-ACETYLGALACTOSAMINE (GALNAC) CONJUGATES FOR DRUG DELIVERY TO LIVER CELLS” (MICROBIO (SHANGHAI) CO., LTD., priority 2021, published 2024)
Square brackets hold non-standard residues; d marks the D form. Side chains are listed from the residue outwards. * marks the point of attachment. Gal‑1 = GalNAc linker: 5-(GalNAc-oxy)pentanoic acid (3-acetamido-4,5-diacetoxy-6-(acetoxymethyl)tetrahydropyran-2-yl-oxy)pentanoic acid; Gal‑3 = GalNAc linker: 4-(GalNAc-oxy)butanoic acid (3-acetamido-4,5-diacetoxy-6-(acetoxymethyl)tetrahydropyran-2-yl-oxy)butanoic acid; 5FAM = O=C1OC2(c3ccc(O)cc3Oc3cc(O)ccc32)c2ccc(C(=O)*)cc21; Linker2 = 6-aminohexyl amide linker; GalNAc = N-acetylgalactosamine

How the values were obtained:
HepG2 cells = experiment: Cellular uptake / binding of FAM-labeled ligands to HepG2 cells (flow cytometry, proportion of FAM positive cells); assay type: cell-based, human; conditions: for Efficiency (%) of cellular uptake (percentage of ligand-bound HepG2 cells): 24 h
Method: The human hepatocellular carcinoma (HepG2) cell line was purchased from Shanghai Zhong Qiao Xin Zhou Biotechnology Co., Ltd. and maintained in minimum essential medium (Gibco, ThermoFisher Scientific, USA) with 10% fetal bovine serum (Gibco, ThermoFisher Scientific, USA), 200 units/mL penicillin plus 200 units/mL streptomycin at 37° C. with 5% CO2.
Cells were seeded in 24-well plates with a density of 1.5×10^5 cells per well and incubated under 37° C., 5% CO2. After 18 h of incubation, media were replaced to MEM with 2% FBS and FAM-labeled ligands were added with final concentrations of 1.6, 8, 40 or 200 nM. After 24 h of incubation, cells were washed twice with 1×PBS and analyzed by LSRFortessa (BD Biosciences, NJ, USA). The binding efficiency was evaluated by the proportion of FAM positive cells.
HepG2 cell was treated by 14 cyclic peptide-tri-GalNAc ligand variants with serial diluted concentration of 1.6, 8, 40 or 200 nM. Commercialized tri-GalNAc used in Givosirna was used as positive control and cyclic peptide w/o tri-GalNAc was negative control. […] Equilibrium dissociation constant (kd) for 5-FAM-CPMB-0013 (ID013), 5-FAM-CPMB-0023 (ID023), 5-FAM-CPMB-0035 (ID035) and commercialized tri-GalNAC were 7.0, 8.6, 5.7 and 18 nM, respectively.

[1] = target: asialoglycoprotein receptor (ASGPR) on HepG2 cells (human) (UniProt P07306); experiment: flow cytometry, % FAM-positive HepG2 cells after 24 h with 40 nM ligand
[2] = target: asialoglycoprotein receptor (ASGPR) on HepG2 cells (human) (UniProt P07306); experiment: flow cytometry, % FAM-positive HepG2 cells after 24 h with 200 nM ligand
[3] = target: asialoglycoprotein receptor (ASGPR) on HepG2 cells (human) (UniProt P07306); experiment: flow cytometry, % FAM-positive HepG2 cells after 24 h with 1.6 nM ligand
[4] = target: asialoglycoprotein receptor (ASGPR) on HepG2 cells (human) (UniProt P07306); experiment: flow cytometry, % FAM-positive HepG2 cells after 24 h with 8 nM ligand
[5] = target: asialoglycoprotein receptor (ASGPR) on HepG2 cells (human) (UniProt P07306); experiment: flow cytometry titration on HepG2 cells (% FAM-positive cells, 1.6-200 nM, 24 h)

Chain of asialoglycoprotein receptor (ASGPR) on HepG2 cells (human) (P07306 whole entry, chain 1 of 2): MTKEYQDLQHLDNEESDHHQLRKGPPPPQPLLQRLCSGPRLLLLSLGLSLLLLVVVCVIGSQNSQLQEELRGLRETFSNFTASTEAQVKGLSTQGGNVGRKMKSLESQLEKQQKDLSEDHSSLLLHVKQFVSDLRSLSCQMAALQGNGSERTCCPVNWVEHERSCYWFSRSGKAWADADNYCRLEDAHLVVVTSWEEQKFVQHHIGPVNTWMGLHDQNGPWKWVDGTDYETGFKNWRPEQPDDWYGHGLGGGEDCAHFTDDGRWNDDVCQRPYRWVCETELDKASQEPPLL
Chain of asialoglycoprotein receptor (ASGPR) on HepG2 cells (human) (P07307 whole entry, chain 2 of 2, further chain): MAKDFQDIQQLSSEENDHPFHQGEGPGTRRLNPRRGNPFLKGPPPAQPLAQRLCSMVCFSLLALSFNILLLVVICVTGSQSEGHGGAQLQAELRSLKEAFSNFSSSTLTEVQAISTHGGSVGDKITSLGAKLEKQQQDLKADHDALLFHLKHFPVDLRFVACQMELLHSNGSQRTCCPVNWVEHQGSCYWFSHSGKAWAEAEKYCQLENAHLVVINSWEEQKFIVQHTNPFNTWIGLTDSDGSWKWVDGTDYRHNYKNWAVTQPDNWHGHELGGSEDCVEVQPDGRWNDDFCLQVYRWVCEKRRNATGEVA

Efficiency (%) (proportion of FAM positive cells) [1] | Efficiency (%) (proportion of FAM positive cells) [2] | Efficiency (%) (proportion of FAM positive cells) [3] | Efficiency (%) (proportion of FAM positive cells) [4] | Kd [5] [nM] | Molecule | Efficiency (%) of cellular uptake (percentage of ligand-bound HepG2 cells) (HepG2 cells; 1.6 nM ligand, HepG2) [%] | Efficiency (%) of cellular uptake (percentage of ligand-bound HepG2 cells) (HepG2 cells; 8 nM ligand, HepG2) [%] | Efficiency (%) of cellular uptake (percentage of ligand-bound HepG2 cells) (HepG2 cells; 40 nM ligand, HepG2) [%] | Efficiency (%) of cellular uptake (percentage of ligand-bound HepG2 cells) (HepG2 cells; 200 nM ligand, HepG2) [%] | Kd (HepG2 cells; HepG2 cells, read-out: Equilibrium dissociation constant (kd)) [nM] | binding ability as compared to others and commercialized tri-GalNAc (HepG2 cells; among 14 variants, HepG2)
 |  |  |  |  | 5-FAM-CPMB-0033: CPS-003 cyclic peptide scaffold, Gal-3 GalNAc linker, 5-FAM label; FIG. 14J (KEKGKG; D-residues; cyclised or stapled) | 5.3 | 34.5 | 82.9 | 98.2 |  | 
 |  |  |  |  | 5-FAM-CPMB-0311: CPS-031 cyclic peptide scaffold, Gal-1 GalNAc linker, 5-FAM label; FIG. 14M (KEKAKA; cyclised or stapled) | 3.1 | 20.8 | 68.8 | 93.3 |  | 
 |  |  |  |  | 5-FAM-CPMB-0014: CPS-001 cyclic peptide scaffold, Gal-4 GalNAc linker, 5-FAM label; FIG. 14D (KEKGKG; cyclised or stapled) | 2.3 | 24.4 | 71.0 | 96.5 |  | 
 |  |  |  |  | 5-FAM-CPMB-0031-Ac: negative control, cyclic peptide w/o tri-GalNAc; CPS-003, Gal-1; FIG. 14R (KEKGKG; D-residues; cyclised or stapled) [reference compound] | 0.1 | 0.1 | 0.2 | 0.4 |  | 
 |  |  |  |  | 5-FAM-CPMB-0015: CPS-001 cyclic peptide scaffold, Gal-5 GalNAc linker, 5-FAM label; FIG. 14E (KEKGKG; cyclised or stapled) | 16.3 | 36.3 | 89.6 | 99 |  | 
 |  |  |  |  | 5-FAM-CPMB-0021: CPS-002 cyclic peptide scaffold, Gal-1 GalNAc linker, 5-FAM label; FIG. 14F (KEKGKG; D-residues; cyclised or stapled) | 6.8 | 46.1 | 88.7 | 98.8 |  | 
 |  |  |  |  | 5-FAM-CPMB-0011: CPS-001 cyclic peptide scaffold, Gal-1 GalNAc linker, 5-FAM label; FIG. 14A (KEKGKG; cyclised or stapled) | 3.0 | 20.1 | 67.7 | 94.2 |  | 
 |  |  |  |  | 5-FAM-CPMB-0034: CPS-003 cyclic peptide scaffold, Gal-4 GalNAc linker, 5-FAM label; FIG. 14K (KEKGKG; D-residues; cyclised or stapled) | 2.0 | 25.6 | 73.6 | 95.6 |  | 
 |  |  |  |  | 5-FAM-CPMB-0012: CPS-001 cyclic peptide scaffold, Gal-2 GalNAc linker, 5-FAM label; FIG. 14B (KEKGKG; not fully specified; cyclised or stapled) | 1.2 | 19.6 | 74.2 | 95.9 |  | 
 |  |  |  |  | 5-FAM-CPMB-0031: CPS-003 cyclic peptide scaffold, Gal-1 GalNAc linker, 5-FAM label; FIG. 14I (KEKGKG; D-residues; cyclised or stapled) | 6.0 | 44.2 | 87.8 | 98.6 |  | 
 |  |  |  |  | 5-FAM-CPMB-0035: CPS-003 cyclic peptide scaffold, Gal-5 GalNAc linker, 5-FAM label; FIG. 14L (KEKGKG; D-residues; cyclised or stapled) | 11.1 | 63.2 | 95.2 | 99.5 | 5.7 | relatively higher binding ability
 |  |  |  |  | 5-FAM-CPMB-0025: CPS-002 cyclic peptide scaffold, Gal-5 GalNAc linker, 5-FAM label; FIG. 14H (KEKGKG; D-residues; cyclised or stapled) | 1.6 | 30 | 83.1 | 98.2 |  | 
 |  |  |  |  | 5-FAM-CPMB-0313: CPS-031 cyclic peptide scaffold, Gal-3 GalNAc linker, 5-FAM label; FIG. 14N (KEKAKA; cyclised or stapled) | 3.0 | 24.6 | 73.2 | 95.1 |  | 
83.1 | 98.2 | 1.6 | 30 |  | KEKGKG (head-to-tail cyclic; D-Lys at the three Lys positions and D-Glu; each D-Lys side chain carries GalNAc via linker Gal-5; D-Glu side chain carries Linker2 with 5-FAM) [5-FAM-CPMB-0025] |  |  |  |  |  | 
88.7 | 98.8 | 6.8 | 46.1 |  | cyclo([dK]([Gal‑1-GalNAc])[dE]([Linker2-5FAM])[dK]([Gal‑1-GalNAc])G[dK]([Gal‑1-GalNAc])G) [5-FAM-CPMB-0021] |  |  |  |  |  | 
95.2 | 99.5 | 11.1 | 63.2 | 5.7 | KEKGKG (head-to-tail cyclic; D-Glu; each Lys side chain carries GalNAc via linker Gal-5; D-Glu side chain carries Linker2 with 5-FAM) [5-FAM-CPMB-0035] |  |  |  |  |  | 
91.2 | 99.2 | 6.2 | 47.2 | 8.6 | cyclo([dK]([Gal‑3-GalNAc])[dE]([Linker2-5FAM])[dK]([Gal‑3-GalNAc])G[dK]([Gal‑3-GalNAc])G) [5-FAM-CPMB-0023] |  |  |  |  |  | 
82.9 | 98.2 | 5.3 | 34.5 |  | cyclo(K([Gal‑3-GalNAc])[dE]([Linker2-5FAM])K([Gal‑3-GalNAc])GK([Gal‑3-GalNAc])G) [5-FAM-CPMB-0033] |  |  |  |  |  | 
73.6 | 95.6 | 2 | 25.6 |  | KEKGKG (head-to-tail cyclic; D-Glu; each Lys side chain carries GalNAc via linker Gal-4; D-Glu side chain carries Linker2 with 5-FAM) [5-FAM-CPMB-0034] |  |  |  |  |  | 
87.8 | 98.6 | 6 | 44.2 |  | cyclo(K([Gal‑1-GalNAc])[dE]([Linker2-5FAM])K([Gal‑1-GalNAc])GK([Gal‑1-GalNAc])G) [5-FAM-CPMB-0031] |  |  |  |  |  | 
